Measurements: ChEMBL document CHEMBL1141905, “3,4-disubstituted azetidinones as selective inhibitors of the cysteine protease cathepsin K. Exploring P3 elements for potency and selectivity” (Bioorg Med Chem Lett, 2005)

How the values were obtained:
[1] = biological target: Cathepsin S (Homo sapiens) (UniProt P25774); assay: Apparent inhibitory constant against human cathepsin S
[2] = biological target: Procathepsin L (Homo sapiens) (UniProt P07711);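 further: apparent inhibition constant, determined on the human enzyme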
Procathepsin L (Homo sapiens), sequence (P07711 114-333 limits assumed): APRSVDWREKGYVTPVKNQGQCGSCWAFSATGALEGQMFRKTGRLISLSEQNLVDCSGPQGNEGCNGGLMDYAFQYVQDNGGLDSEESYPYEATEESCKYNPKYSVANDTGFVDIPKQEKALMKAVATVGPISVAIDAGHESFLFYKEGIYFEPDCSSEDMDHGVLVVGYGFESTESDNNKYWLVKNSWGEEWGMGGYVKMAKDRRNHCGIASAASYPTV

[3] = biological target: Cathepsin B (Homo sapiens) (UniProt P07858); assay: Apparent inhibitory constant against human cathepsin B
[4] = biological target: T1, Cathepsin K (Oryctolagus cuniculus) (UniProt P43236); assay: Apparent inhibitory constant against rabbit cathepsin K
T1 sequence (whole entry): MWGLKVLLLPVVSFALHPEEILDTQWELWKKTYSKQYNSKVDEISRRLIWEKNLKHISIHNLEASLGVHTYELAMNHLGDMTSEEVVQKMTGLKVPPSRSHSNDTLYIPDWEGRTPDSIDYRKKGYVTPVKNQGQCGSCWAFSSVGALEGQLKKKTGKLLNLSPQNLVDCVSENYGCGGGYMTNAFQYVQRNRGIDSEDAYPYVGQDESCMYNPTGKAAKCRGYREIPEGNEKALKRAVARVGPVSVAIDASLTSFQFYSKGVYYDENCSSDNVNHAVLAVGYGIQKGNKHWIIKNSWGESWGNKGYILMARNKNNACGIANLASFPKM

[5] = Beta half life period; assay type: ADME
[6] = Alpha half life period; assay type: ADME
[7] = Volume of distribution following intravenous administration evaluated as moderate; assay type: ADME, organism-based; settings: in vivo
[8] = Clearance following intravenous administration evaluated as high; assay type: ADME, organism-based; settings: in vivo
[9] = Mean residence time by intravenous administration; assay type: ADME, organism-based; settings: in vivo

Cathepsin S (Homo sapiens), sequence (P25774 115-331 limits assumed): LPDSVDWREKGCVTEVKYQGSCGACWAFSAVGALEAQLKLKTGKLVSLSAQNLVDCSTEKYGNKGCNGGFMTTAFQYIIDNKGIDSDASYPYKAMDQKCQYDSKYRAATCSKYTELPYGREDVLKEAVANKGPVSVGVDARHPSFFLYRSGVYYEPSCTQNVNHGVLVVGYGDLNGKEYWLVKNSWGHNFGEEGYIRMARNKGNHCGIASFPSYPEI

SMILES	Ki'' [1] [nM]	Ki'' [2] [nM]	Ki'' [3] [nM]	Ki'' [4] [nM]	half-life [5] [min]	half-life [6] [min]	Vd [7] [L/kg]	clearance [8] [mL/min/kg]	MRT [9] [min]
CC(=O)O[C@@H]1NC(=O)[C@H]1NC(=O)C1(NC(=O)c2ccc(N3CCN(C)CC3)cc2)CCCCC1	8800	1400	490	1.1	–	–	–	–	–
CSc1ccc(C(=O)NC2(C(=O)N[C@@H]3C(=O)N[C@H]3OC(C)=O)CCCCC2)cc1	3500	6400	1200	12	–	–	–	–	–
CC(=O)O[C@@H]1NC(=O)[C@H]1NC(=O)C1(NC(=O)c2ccc(Cl)cc2)CCCCC1	3400	8200	2100	92	–	–	–	–	–
CC(=O)O[C@@H]1NC(=O)[C@H]1NC(=O)C1(NC(=O)OCc2ccccc2)CCCCC1	950	6800	4300	57	–	–	–	–	–
CC(=O)O[C@@H]1NC(=O)[C@H]1NC(=O)C1(NC(=O)c2ccc(N(C)C)cc2)CCCCC1	2800	2100	530	3.1	–	–	–	–	–
CC(=O)O[C@@H]1NC(=O)[C@H]1NC(=O)C1(NC(=O)c2ccc(-c3csc(N(C)C)n3)cc2)CCCCC1	7700	390	1400	2.6	–	–	–	–	–
CC(=O)O[C@@H]1NC(=O)[C@H]1NC(=O)C1(NC(=O)c2ccc(N3CCOCC3)cc2)CCCCC1	14000	19000	980	5	–	–	–	–	–
CC(=O)O[C@@H]1NC(=O)[C@H]1NC(=O)C1(NC(=O)c2ccc(-c3csc(CN4CCOCC4)n3)cc2)CCCCC1	12000	11000	1700	7.5	–	–	–	–	–

Other lines, results leading:

Ki'' [1] [nM]	Ki'' [2] [nM]	Ki'' [3] [nM]	Ki'' [4] [nM]	half-life [5] [min]	half-life [6] [min]	Vd [7] [L/kg]	clearance [8] [mL/min/kg]	MRT [9] [min]	SMILES
8500	3300	940	1.1	–	–	–	–	–	CC(=O)O[C@@H]1NC(=O)[C@H]1NC(=O)C1(NC(=O)c2ccc(-c3csc(N4CCN(C)CC4)n3)cc2)CCCCC1
8800	2100	91	0.25	–	–	–	–	–	CC(=O)O[C@@H]1NC(=O)[C@H]1NC(=O)C1(NC(=O)c2ccc(-c3csc(NN4CCN(C)CC4)n3)cc2)CCCCC1
150000	8.2	5200	8.2	–	–	–	–	–	CN1CCN(Nc2nc(-c3ccc(C(=O)NC4(C(=O)N[C@@H]5C(=O)N[C@@H]5Oc5ccccc5)CCCCC4)cc3)cs2)CC1
–	–	–	–	21	2	1.6	92	17	CN1CCN(c2nc(-c3ccc(C(=O)NC4(C(=O)N[C@@H]5C(=O)N[C@@H]5Oc5ccccc5)CCCCC4)cc3)cs2)CC1
10000	89	25000	18	–	–	–	–	–	CN(C)c1nc(-c2ccc(C(=O)NC3(C(=O)N[C@@H]4C(=O)N[C@H]4Oc4ccccc4)CCCCC3)cc2)cs1
140000	310	6000	0.26	–	–	–	–	–	CN1CCN(Nc2nc(-c3ccc(C(=O)NC4(C(=O)N[C@@H]5C(=O)N[C@H]5Oc5ccccc5)CCCCC4)cc3)cs2)CC1
